Results: ChEMBL document CHEMBL4265944, “Novel amide derivatives of 1,3-dimethyl-2,6-dioxopurin-7-yl-alkylcarboxylic acids as multifunctional TRPA1 antagonists and PDE4/7 inhibitors: A new approach for the treatment of pain” (Eur J Med Chem, 2018)
Active and inactive are the calls of the source. The calls are words filed in the database; no cut-off is given here.

Assays:
[1] = target: Transient receptor potential cation channel subfamily A member 1 (Homo sapiens) (UniProt O75762); assay: Antagonist activity at human TRPA1 expressed in HEK293 cells assessed as decrease in flufenamic acid-evoked increase in intracellular calcium level at 100 uM measured for 180 secs with 1 sec interval by Fluo4-AM dye-based fluorescence assay relative to control; format: cell-based
[2] = target: Transient receptor potential cation channel subfamily A member 1 (Homo sapiens) (UniProt O75762); assay: Antagonist activity at human TRPA1 expressed in HEK293 cells assessed as decrease in flufenamic acid-evoked increase in intracellular calcium level at 10 uM measured for 180 secs with 1 sec interval by Fluo4-AM dye-based fluorescence assay relative to control; format: cell-based
[3] = target: Transient receptor potential cation channel subfamily A member 1 (Homo sapiens) (UniProt O75762); assay: Antagonist activity at human TRPA1 expressed in HEK293 cells assessed as decrease in flufenamic acid-evoked increase in intracellular calcium level at 1 uM measured for 180 secs with 1 sec interval by Fluo4-AM dye-based fluorescence assay relative to control; format: cell-based
[4] = target: 3',5'-cyclic-AMP phosphodiesterase 4B (Homo sapiens, UniProt Q07343); assay: Inhibition of recombinant human PDE4B using cAMP as substrate after 10 mins by PDE-Glo Phosphodiesterase Assay
[5] = target: High affinity 3',5'-cyclic-AMP phosphodiesterase 7A (Homo sapiens, UniProt Q13946); assay: Inhibition of recombinant human PDE7A using cAMP as substrate after 10 mins by PDE-Glo Phosphodiesterase Assay
[6] = Plasma concentration in Wistar rat model of LPS-induced inflammation at 50 mg/kg, ip measured at 1 hr post dose by HPLC method; format: ADME, organism-based
[7] = Plasma concentration in Wistar rat model of LPS-induced inflammation at 50 mg/kg, ip measured at 1.5 hrs post dose by HPLC method; format: ADME, organism-based
[8] = Plasma concentration in Wistar rat model of LPS-induced inflammation at 50 mg/kg, ip measured at 2 hrs post dose by HPLC method; format: ADME, organism-based
[9] = system: Mus musculus; assay: Antiinflammatory activity in formalin-induced nociception Swiss CD-1 mouse model assessed as time spent on licking or biting formalin injected right hind paw during neurogenic phase at 10 mg/kg, ip measured during phase 1 (reference value: 75.50 +/- 6.86 sec); format: functional
[10] = system: Mus musculus; assay: Antiinflammatory activity in formalin-induced nociception Swiss CD-1 mouse model assessed as time spent on licking or biting formalin injected right hind paw during neurogenic phase at 5 mg/kg, ip measured during phase 1 (reference value: 75.50 +/- 6.86 sec); format: functional
[11] = system: Mus musculus; assay: Antiinflammatory activity in formalin-induced nociception Swiss CD-1 mouse model assessed as time spent on licking or biting formalin injected right hind paw during neurogenic phase at 2.5 mg/kg, ip measured during phase 1 (reference value: 75.50 +/- 6.86 sec); format: functional
[12] = system: Mus musculus; assay: Antiinflammatory activity in formalin-induced nociception Swiss CD-1 mouse model assessed as time spent on licking or biting formalin injected right hind paw during […] phase at 10 mg/kg, ip measured during phase 2 (reference value: 143.60 sec); format: functional
[13] = system: Mus musculus; assay: Antiinflammatory activity in formalin-induced nociception Swiss CD-1 mouse model assessed as time spent on licking or biting formalin injected right hind paw […] at 5 mg/kg, ip measured during phase 2 (reference value: 143.60 sec); format: functional
[14] = system: Mus musculus; assay: Antiinflammatory activity in formalin-induced nociception Swiss CD-1 mouse model assessed as time spent on licking or biting formalin injected right hind paw during […] phase at 2.5 mg/kg, ip measured during phase 2 (reference value: 143.60 sec); format: functional
[15] = system: Mus musculus; assay: Antiinflammatory activity in formalin-induced nociception ip dosed Swiss CD-1 mouse model assessed as time spent on licking or biting formalin injected right hind paw […] measured during phase 2; format: functional; settings: Swiss CD-1, ip
[16] = system: Mus musculus; assay: Potency index, ratio of ED50 for HC-030031 to test compound ED50 for formalin-induced nociception ip dosed Swiss CD-1 mouse model assessed as time spent on licking or biting formalin injected right hind paw […] measured during phase 2; format: functional
[17] = system: Rattus norvegicus; assay: Anti-inflammatory activity in Wistar rat assessed as inhibition of carrageenan-induced paw edema at 20 mg/kg, ip measured at 1 hr post dose relative to control; format: functional
[18] = system: Rattus norvegicus; assay: Anti-inflammatory activity in Wistar rat assessed as inhibition of carrageenan-induced paw edema at 20 mg/kg, ip measured at 2 hrs post dose relative to control; format: functional
[19] = system: Rattus norvegicus; assay: Anti-inflammatory activity in Wistar rat assessed as inhibition of carrageenan-induced paw edema at 20 mg/kg, ip measured at 3 hrs post dose relative to control; format: functional
[20] = system: Rattus norvegicus; assay: Antiallodynic activity in Wistar rat assessed as reduction in oxaliplatin-induced neuropathic pain in early phase by measuring paw withdrawal force at 5 to 10 mg/kg, ip measured after 60 mins by Von Frey test; format: functional, organism-based
[21] = system: Rattus norvegicus; assay: Antiallodynic activity in Wistar rat assessed as reduction in oxaliplatin-induced neuropathic pain in late phase by measuring paw withdrawal force at 10 mg/kg, ip measured after 60 mins by Von Frey test; format: functional, organism-based
[22] = system: Rattus norvegicus; assay: Antiallodynic activity in Wistar rat assessed as reduction in oxaliplatin-induced neuropathic pain in early phase by measuring paw withdrawal force at 1 mg/kg, ip measured after 60 mins by Von Frey test; format: functional, organism-based
[23] = system: Rattus norvegicus; assay: Antiallodynic activity in Wistar rat assessed as reduction in oxaliplatin-induced neuropathic pain in late phase by measuring paw withdrawal latency time at 1 mg/kg, ip measured after 60 secs by cold plate test; format: functional, organism-based
[24] = system: Rattus norvegicus; assay: Antiallodynic activity in Wistar rat assessed as reduction in oxaliplatin-induced neuropathic pain in late phase by measuring paw withdrawal latency time at 5 mg/kg, ip measured after 60 secs by cold plate test; format: functional, organism-based
[25] = system: Rattus norvegicus; assay: Antiinflammatory activity in Wistar rat assessed as inhibition of LPS-induced TNF-alpha level at 50 mg/kg, ip measured at 1 to 2 hrs post dose by ELISA relative to control; format: functional
[26] = system: Rattus norvegicus; assay: Antiinflammatory activity in Wistar rat assessed as inhibition of LPS-induced TNF-alpha level at 50 mg/kg, ip measured at 1 hr post dose by ELISA relative to control; format: functional
[27] = system: Rattus norvegicus; assay: Antiinflammatory activity in Wistar rat assessed as inhibition of LPS-induced TNF-alpha level at 50 mg/kg, ip measured at 1.5 hrs post dose by ELISA relative to control; format: functional
[28] = system: Rattus norvegicus; assay: Antiinflammatory activity in Wistar rat assessed as inhibition of LPS-induced TNF-alpha level at 50 mg/kg, ip measured at 2 hrs post dose by ELISA relative to control; format: functional
[29] = system: Mus musculus; assay: Antiinflammatory activity in formalin-induced nociception Swiss CD-1 mouse model assessed as time spent on licking or biting formalin injected right hind paw during neurogenic phase at 10 mg/kg, ip measured during phase 1 (reference value: 33 +/- 1.45 sec); format: functional
[30] = system: Mus musculus; assay: Antiinflammatory activity in formalin-induced nociception Swiss CD-1 mouse model assessed as time spent on licking or biting formalin injected right hind paw during neurogenic phase at 5 mg/kg, ip measured during phase 1 (reference value: 33 +/- 1.45 sec); format: functional
[31] = system: Mus musculus; assay: Antiinflammatory activity in formalin-induced nociception Swiss CD-1 mouse model assessed as time spent on licking or biting formalin injected right hind paw during neurogenic phase at 2.5 mg/kg, ip measured during phase 1 (reference value: 33 +/- 1.45 sec); format: functional
[32] = system: Mus musculus; assay: Antiinflammatory activity in formalin-induced nociception Swiss CD-1 mouse model assessed as time spent on licking or biting formalin injected right hind paw […] at 5 mg/kg, ip measured during phase 2 (reference value: 83.63 +/- 12.98 sec); format: functional
[33] = system: Mus musculus; assay: Antiinflammatory activity in formalin-induced nociception Swiss CD-1 mouse model assessed as time spent on licking or biting formalin injected right hind paw during […] phase at 2.5 mg/kg, ip measured during phase 2 (reference value: 83.63 +/- 12.98 sec); format: functional
[34] = system: Rattus norvegicus; assay: Antiallodynic activity in Wistar rat assessed as reduction in oxaliplatin-induced neuropathic pain in early phase by measuring paw withdrawal force at 10 mg/kg, ip measured after 60 mins by Von Frey test; format: functional, organism-based
[35] = system: Rattus norvegicus; assay: Antiallodynic activity in Wistar rat assessed as reduction in oxaliplatin-induced neuropathic pain in late phase by measuring paw withdrawal latency time at 1 to 10 mg/kg, ip measured after 60 secs by cold plate test; format: functional, organism-based
[36] = system: Rattus norvegicus; assay: Antiallodynic activity in Wistar rat assessed as reduction in oxaliplatin-induced neuropathic pain in early phase by measuring paw withdrawal latency time at 1 to 10 mg/kg, ip measured after 60 secs by cold plate test; format: functional, organism-based

Chain of Transient receptor potential cation channel subfamily A member 1 (Homo sapiens) (O75762 whole entry): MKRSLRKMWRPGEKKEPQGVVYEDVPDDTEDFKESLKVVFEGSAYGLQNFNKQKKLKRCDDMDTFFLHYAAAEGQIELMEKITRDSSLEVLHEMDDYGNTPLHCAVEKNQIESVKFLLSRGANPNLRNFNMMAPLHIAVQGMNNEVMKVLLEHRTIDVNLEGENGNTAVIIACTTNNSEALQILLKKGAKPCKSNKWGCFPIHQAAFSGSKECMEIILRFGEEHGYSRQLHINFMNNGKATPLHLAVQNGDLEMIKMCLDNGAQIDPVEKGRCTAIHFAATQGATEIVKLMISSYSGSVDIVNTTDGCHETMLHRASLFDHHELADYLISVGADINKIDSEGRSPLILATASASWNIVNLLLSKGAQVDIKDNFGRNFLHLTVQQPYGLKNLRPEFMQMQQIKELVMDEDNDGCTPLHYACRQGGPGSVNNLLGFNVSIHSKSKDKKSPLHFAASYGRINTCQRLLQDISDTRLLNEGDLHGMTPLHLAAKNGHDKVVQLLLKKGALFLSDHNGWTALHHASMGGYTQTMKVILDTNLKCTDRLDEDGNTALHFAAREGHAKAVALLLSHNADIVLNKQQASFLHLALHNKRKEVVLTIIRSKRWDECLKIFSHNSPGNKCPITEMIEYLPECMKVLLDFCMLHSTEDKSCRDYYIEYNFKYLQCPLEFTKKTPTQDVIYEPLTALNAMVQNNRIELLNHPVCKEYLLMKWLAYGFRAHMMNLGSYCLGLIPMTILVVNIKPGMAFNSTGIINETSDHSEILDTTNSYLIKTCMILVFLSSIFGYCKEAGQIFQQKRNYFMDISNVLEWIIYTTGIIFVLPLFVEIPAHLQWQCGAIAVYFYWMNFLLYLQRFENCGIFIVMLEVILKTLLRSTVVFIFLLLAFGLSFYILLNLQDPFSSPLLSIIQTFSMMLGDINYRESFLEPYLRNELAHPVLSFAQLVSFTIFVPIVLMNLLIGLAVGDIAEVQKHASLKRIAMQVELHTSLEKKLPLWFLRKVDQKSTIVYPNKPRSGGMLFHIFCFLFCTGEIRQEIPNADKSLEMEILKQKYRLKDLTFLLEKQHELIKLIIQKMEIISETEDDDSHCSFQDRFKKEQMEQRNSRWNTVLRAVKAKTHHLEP
Chain of High affinity 3',5'-cyclic-AMP phosphodiesterase 7A (Q13946 whole entry): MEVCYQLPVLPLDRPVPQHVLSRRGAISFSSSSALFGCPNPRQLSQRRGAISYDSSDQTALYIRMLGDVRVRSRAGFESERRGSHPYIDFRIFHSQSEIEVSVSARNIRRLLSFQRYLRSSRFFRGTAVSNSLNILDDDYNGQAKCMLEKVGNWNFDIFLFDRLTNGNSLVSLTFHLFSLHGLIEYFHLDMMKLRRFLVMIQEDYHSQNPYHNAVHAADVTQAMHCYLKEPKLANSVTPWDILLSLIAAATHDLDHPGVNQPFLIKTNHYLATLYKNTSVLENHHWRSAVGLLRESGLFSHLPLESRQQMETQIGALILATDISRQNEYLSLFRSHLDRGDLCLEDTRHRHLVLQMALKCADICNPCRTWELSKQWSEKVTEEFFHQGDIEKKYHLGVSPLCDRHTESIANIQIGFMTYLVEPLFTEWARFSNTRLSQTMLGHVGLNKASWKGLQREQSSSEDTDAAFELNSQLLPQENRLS
Chain of 3',5'-cyclic-AMP phosphodiesterase 4B (Q07343 whole entry): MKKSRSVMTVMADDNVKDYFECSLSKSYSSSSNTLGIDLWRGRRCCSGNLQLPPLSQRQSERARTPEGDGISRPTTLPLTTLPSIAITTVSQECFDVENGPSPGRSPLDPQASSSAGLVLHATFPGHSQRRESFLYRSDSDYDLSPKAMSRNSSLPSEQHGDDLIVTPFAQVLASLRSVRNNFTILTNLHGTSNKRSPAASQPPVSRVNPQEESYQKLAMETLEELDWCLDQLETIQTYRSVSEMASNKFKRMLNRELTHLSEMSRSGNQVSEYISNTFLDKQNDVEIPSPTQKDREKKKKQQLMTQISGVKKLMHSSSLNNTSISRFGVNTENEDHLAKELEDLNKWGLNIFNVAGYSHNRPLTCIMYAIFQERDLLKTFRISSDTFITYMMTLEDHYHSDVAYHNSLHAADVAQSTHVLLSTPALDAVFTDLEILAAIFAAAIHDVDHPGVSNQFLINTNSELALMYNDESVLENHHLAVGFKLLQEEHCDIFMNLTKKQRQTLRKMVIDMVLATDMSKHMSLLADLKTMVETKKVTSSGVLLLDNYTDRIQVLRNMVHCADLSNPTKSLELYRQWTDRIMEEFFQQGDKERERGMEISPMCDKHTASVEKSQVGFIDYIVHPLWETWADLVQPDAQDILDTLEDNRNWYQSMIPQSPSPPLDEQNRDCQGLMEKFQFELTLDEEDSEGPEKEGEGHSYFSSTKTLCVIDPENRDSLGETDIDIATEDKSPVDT

## COc1nc2c(c(=O)n(C)c(=O)n2C)n1CC(=O)Nc1ccc(C(C)(C)C)cc1
[1]
  inhibition: 53%
[2]
  inhibition: 40%
[3]
  inhibition: 40%
[4]
  IC50: > 200 µM
[5]
  IC50: > 200 µM
[6]
  concentration at 1 h: 2680 nM
[7]
  concentration at 1.5 h: 2330 nM
[8]
  concentration at 2 h: 1950 nM
[9]
  Time: 65.17 s
[10]
  Time: 86.33 s
[11]
  Time: 69 s
[12]
  Time: 31.67 s
[13]
  Time: 48 s
[14]
  Time: 72.6 s
[15]
  ED50: 2.49 mg/kg
[16]
  Ratio ED50: 10 - 13
[17]
  inhibition in vivo at 20 mg/kg: 37.1%
[18]
  inhibition in vivo at 20 mg/kg: 18.7%
[19]
  inhibition in vivo at 20 mg/kg: 30.6%
[20]
  Activity: Active
[21]
  Activity: Active
[22]
  Activity: inactive
[23]
  Activity: Active
[24]
  Activity: Active
[25]
  inhibition in vivo at 50 mg/kg: 33 to 44%

## CCCCOc1nc2c(c(=O)n(C)c(=O)n2C)n1CCCC(=O)Nc1cc(C(C)(C)C)ccc1O
[1]
  inhibition: 39%
[2]
  inhibition: 7%
[3]
  inhibition: 6%
[4]
  IC50: 5.43 µM
[5]
  IC50: 5.07 µM
[26]
  inhibition in vivo at 50 mg/kg: 85.4%
[27]
  inhibition in vivo at 50 mg/kg: 90.2%
[28]
  inhibition in vivo at 50 mg/kg: 92%
[6]
  concentration at 1 h: 1980 nM
[7]
  concentration at 1.5 h: 740 nM
[8]
  concentration at 2 h: 290 nM
[29]
  Time: 21.33 s
[30]
  Time: 25.17 s
[31]
  Time: 32 s
[32]
  Time: 49.17 s
[33]
  Time: 47.67 s
[15]
  ED50: 3.44 mg/kg
[16]
  Ratio ED50: 10 - 13
[17]
  inhibition in vivo at 20 mg/kg: 48%
[18]
  inhibition in vivo at 20 mg/kg: 79.7%
[19]
  inhibition in vivo at 20 mg/kg: 33.5%
[34]
  Activity: Active
[35]
  Activity: Active
[36]
  Activity: Active
